As a reminder, the IC50 is the concentration that gives 50% inhibition. As usually defined, the Inhibition is the drop in the measured response relative to a control, in per cent.

The structures appear in SMILES notation. Calls of active or inactive are those of the source. The rule behind the calls is not given here.

The subject of data set [1] is Staphylococcus aureus. The data set is described as follows: Antibacterial activity against Staphylococcus aureus assessed as inhibition of biofilm formation. In kind it is functional, organism-based.
Data set [2] concerns Plasmodium falciparum. In words: Antiplasmodial activity against Plasmodium falciparum NF54 infected mice (Mus musculus) after 72 hrs. Type of data set: functional, organism-based. The conditions noted are these: NF54, 72 h.
The subject of data set [3] is Trypanosoma brucei brucei. The data set is described as follows: Antitrypanosomal activity against Trypanosoma brucei brucei TC221. The conditions noted are these: read-out: ED50 (the source's name). Type of data set: functional.
Data set [4] is described as follows: Cytotoxicity against mouse J774.1 cells after 48 hrs. In kind it is cell-based. The conditions noted are these: read-out: ED50.
The subject of data set [5] is Human immunodeficiency virus 1. The data set is described as follows: Antiviral activity against HIV1 BaL replication in PM1 cells. Type of data set: functional.
Data set [6] relates to Human immunodeficiency virus 1. The data set is described as follows: Antiviral activity against HIV1 NL4/3 replication in PM1 cells. Type of data set: functional.
The test system of data set [7] is Plasmodium falciparum. The data set is described as follows: Antiplasmodial activity against Plasmodium falciparum NF54 after 72 hrs. In kind it is functional, organism-based. As to conditions: NF54, 72 h.
Data set [8] deals with Plasmodium falciparum. In words: Antiplasmodial activity against Plasmodium falciparum NF54 after 24 hrs. As to conditions: NF54, 24 h. In kind it is functional, organism-based.
For data set [9], the system named is Leishmania major. In words: Antileishmanial activity against Leishmania major MHOM/IL/81/FE/BNI infected in BALB/c mouse. Type of data set: functional.
The subject of data set [10] is Plasmodium falciparum. In words: Antiplasmodial activity against chloroquine-resistant Plasmodium falciparum. Type of data set: functional, organism-based.
For data set [11], the system named is Plasmodium falciparum. In words: Antiplasmodial activity against chloroquine-sensitive Plasmodium falciparum. Type of data set: functional, organism-based. As to conditions: Plasmodium falciparum; read-out: IC50.
In data set [12] the test system is Plasmodium falciparum. In words: Inhibition of parasitemia in chloroquine-sensitive Plasmodium falciparum NF54 infected C57BL/6 mice (Mus musculus) after 1 day at 40 uM. Details: scale not given: the % may be the effect or the level left. In kind it is functional.
Data set [13] has as its system Plasmodium falciparum. The data set is described as follows: Inhibition of parasitemia in chloroquine-sensitive Plasmodium falciparum NF54 infected C57BL/6 mice (Mus musculus) after 2 days at 20 uM. Type of data set: functional. On the set-up: scale not given: the % may be the effect or the level left.
Data set [14] concerns Mus musculus. The data set is described as follows: Increase in survival of chloroquine-sensitive Plasmodium falciparum NF54 infected intravenously dosed C57BL/6 mice (Mus musculus). Type of data set: functional, organism-based.
For data set [15], the system named is Plasmodium falciparum. The data set is described as follows: Antiplasmodial activity against chloroquine-sensitive Plasmodium falciparum NF54. Type of data set: functional, organism-based.
The test system of data set [16] is Plasmodium falciparum. In words: Inhibition of parasitemia in chloroquine-sensitive Plasmodium falciparum NF54 infected C57BL/6 mice (Mus musculus) after 4 days. Type of data set: functional. Details: scale not given: the % may be the effect or the level left.
Data set [17] relates to Mus musculus. The data set is described as follows: Increase in survival of chloroquine-sensitive Plasmodium falciparum NF54 infected perorally dosed C57BL/6 mice (Mus musculus). In kind it is functional, organism-based.
In data set [18] the test system is Human immunodeficiency virus 1. In words: Antiviral activity against HIV1 BaL replication in PM1 cells at 5 uM. In kind it is functional, organism-based.
The test system of data set [19] is Human immunodeficiency virus 1. The data set is described as follows: Antiviral activity against HIV1 NL4/3 replication in PM1 cells at 6 uM. Type of data set: functional, organism-based.
Data set [20] concerns Plasmodium falciparum. The data set is described as follows: Antiplasmodial activity against Plasmodium falciparum NF54 after 36 hrs. The conditions noted are these: NF54, 36 h. In kind it is functional, organism-based.
The test system of data set [21] is Plasmodium falciparum. The data set is described as follows: Antiplasmodial activity against Plasmodium falciparum NF54 after 48 hrs. In kind it is functional, organism-based. The conditions noted are these: NF54, 48 h.

Take `CCOC(=O)C1C(=O)C(C(=O)OCC)[C@H](c2ccc([N+](=O)[O-])cc2)N(Cc2ccccc2)[C@@H]1c1ccc([N+](=O)[O-])cc1` (some centres undefined): the outcome in data set [1] was inactive. This compound also gave an IC50 in data set [2] of 10.1 µM. The EC50 in data set [3] is 2.72 µM. Moreover, in data set [4], the CC50 at 48 h was greater than 100 µM. Further, the Inhibition in [5] and in data set [6] was 20% each time.
In the case of `Cl.Clc1cccc(Cl)c1CO/N=C/C1CCN(CCCc2ccccc2)CC1`, the result in [1] was inactive. For the same compound, the results for the IC50 in data set [7] and in data set [8] were 8.29 µM and 11.8 µM, respectively. In data set [9], this compound gave an ED50 of 30.72 µM. Also, in data set [4], the CC50 at 48 h worked out at 28.4 µM.
`N[C@@H](Cn1ccc(=O)c(O)c1)C(=O)O` [L-MIMOSINE]: the IC50 is 39 µM in data set [10] and 32 µM in [11].
For `COC(=O)C1C(=O)C(C(=O)OC)[C@H](c2ccccn2)N(Cc2ccccc2)[C@@H]1c1ccccn1` (some centres undefined), the result in data set [1] was inactive. Besides, the values for the IC50 in data set [7] and in data set [8] were 10.9 µM and 10.2 µM, respectively. Further, the ED50 in data set [9] was 55.99 µM. Also, the CC50 at 48 h in [4] worked out at 34 µM. The Activity in data set [12] and in [13] was 0% throughout. The outcome in [14] was Active.
As to `NC(Cn1ccc(=O)c(O)c1)C(=O)O` (centres undefined) [MIMOSINE], the figures for the IC50 in [10] and in data set [11] were 39 µM and 32 µM, respectively. In data set [3], the EC50 was greater than 100 µM.
In the case of `Cc1cc(C2CCCCC2)n(O)c(=O)c1` [CICLOPIROX OLAMINE], the concentration for half-maximal inhibition (IC50) in [15] is 8.2 µM.
As for `C=CCN1[C@H](c2ccc([N+](=O)[O-])cc2)C(C(=O)OCC)C(=O)C(C(=O)OCC)[C@@H]1c1ccc([N+](=O)[O-])cc1` (some centres undefined), the outcome in data set [1] was inactive. Moreover, half-maximal inhibition in data set [2] (IC50) was put at 11 µM. The EC50 in [3] was determined as 3.06 µM. Further, in [4], the CC50 at 48 h was greater than 100 µM. The compound further displayed an Activity in data set [16] of 0%. The result in [17], in data set [18] and in data set [19] was Active.
With `COC(=O)C1C(=O)C(C(=O)OC)[C@H](c2ccc([N+](=O)[O-])cc2)N(Cc2ccccc2)[C@@H]1c1ccc([N+](=O)[O-])cc1` (some centres undefined), in data set [1], the outcome was inactive. Besides, the IC50 in data set [2] turned out to be 11.9 µM. Also, the EC50 in data set [3] was found to be 3.01 µM. In data set [9], this compound registered an ED50 greater than 100 µM. Further, the CC50 at 48 h in data set [4] was determined as 18.4 µM. In addition, the Inhibition in data set [5] and in data set [6] was 20% in each case.
On to `COC(=O)c1c(-c2ccccn2)n(Cc2ccc(Cl)cc2)c(-c2ccccn2)cc1=O`, for which the outcome in data set [1] was inactive. For the same compound, it took 9.4 µM to reach half-maximal inhibition in data set [20] (IC50). The EC50 in data set [3] was greater than 100 µM. In addition, the ED50 in data set [9] was greater than 100 µM. Besides, the CC50 at 48 h in data set [4] was greater than 100 µM.
As for `COC(=O)C1=C(O)C[C@H](c2ccccn2)N(Cc2ccc(Cl)cc2)[C@@H]1c1ccccn1`, the result in data set [1] was inactive. The IC50 was determined as 12 µM in [7] and 1.7 µM in data set [21]. The EC50 in data set [3] is 0.32 µM. The ED50 in [9] was found to be 87.93 µM. In addition, in [4], the CC50 at 48 h came out at 32.8 µM.
Consider `COC(=O)c1c(-c2ccccn2)n(Cc2ccc(C)cc2)c(-c2ccccn2)cc1=O`, for which the outcome in data set [1] was inactive. Further, the IC50 in data set [8] was 9.1 µM; in [21] it was 40 µM.

For the origin of these results see ChEMBL document CHEMBL1140714, “In search of novel agents for therapy of tropical diseases and human immunodeficiency virus” (J Med Chem, 2008).
